Data on six molecules can be found in patent US20140377289A1, “Metallodrugs Having Improved Pharmacological Properties, and Methods of Manufacture and Use Thereof” (MetalloPharm, LLC, priority 2011, published 2014).

Data set [1] deals with stem-loop IIb of HCV IRES RNA. Format: binding, hepatitis C virus (HCV). The following applies: stem-loop IIb. As to the method: (§1) RNA was purchased from Dharmacon, part of Thermo Fisher Scientific (Lafayette, Colo.). Peptides were purchased from Genemed Synthesis Inc (South San Francisco, Calif.) with C-terminal amidation. The stem-loop (SL) structure (from Lytle et al., RNA 13: 539-48, 2002) is depicted in FIG. 6. The sequence for the IRES SL IIb RNA used was 5′-Fluorescein-[…]-3′, and for the IRES SL IV RNA was 5′-Fluorescein-[…]-3′. All RNA was annealed by heating to 95° C. and then cooled slowly to room temperature before use.
(§2) RNA binding experiments were performed in the presence of 84 nM GGHYrFK-amide in 20 mM HEPES (pH 7.4), 100 mM NaCl. For GGHYrFK-amide, serial additions of unlabeled IRES RNA were added and tyrosine emission was monitored (λex=280 nm, λem=313 nm). Binding data for GGHYr[…]-amide and GGHYr[…]-amide were obtained by adding serial additions of peptide to 5′-fluorescein labeled IRES SLIIb and monitoring at 518 nm (Ex=485 nm). Data was then fit to a one-site binding model.

Data set [2] deals with stem loop IV HCV IRES RNA. Format: binding, hepatitis C virus (HCV). As to the method:
as §1, §2

In data set [3] the test system is stem loop IIb HCV IRES RNA. Format: biochemical, hepatitis C virus (HCV). The settings on record: cleavage of stem-loop IIb; 100 nM catalyst, 1 mM ascorbate, 1 mM H2O2. On the procedure: (§3) HCV IRES RNA cleavage was monitored in vitro by fluorescence using 5′ fluorescein end-labeled RNA with excitation and emission wavelengths of 485 nm and 518 nm, respectively. Reactions were carried out in reaction volumes of 100 μl in the presence of 1 mM ascorbate and 1 mM H2O2 in 20 mM HEPES buffer (pH=7.4), 100 mM NaCl with 100 nM of the catalyst and analyzed according to the change in fluorescence observed as the reaction occurred. Both a time-dependence and a concentration-dependence of RNA substrate were observed. The initial velocities were fit to a line using Origin 7.0 software and kobs obtained. These values were then used to obtain the Michaelis-Menten parameters.
The reactivity of select catalytic metallodrugs was investigated by Michaelis-Menten profiles. Reaction chemistry was followed by monitoring the fluorescence change of 5′-fluorescein-labeled RNA as a function of time. Initial velocities were measured as a function of substrate (RNA) concentration to generate a standard Michaelis-Menten plot (FIG. 2).

Data set [4] has as its system stem loop IV HCV IRES RNA. In kind it is biochemical, hepatitis C virus (HCV). The settings on record: cleavage of stem loop IV; 100 nM catalyst, 1 mM ascorbate, 1 mM H2O2. As to the method: as §3
Data set [5] concerns the target T1, Recombinant human somatic ACE (sACE-1) (Homo sapiens, UniProt P12821).
T1 construct: sACE-1: Leu30-Leu1261, with C-terminal His tag; His tag (C); purchased R&D Systems; host or cells: NS0-derived murine myeloma cell line
The experiment in a line: Time-dependent inactivation of sACE-1. The following applies: Ascorbate; pH 7.4, 37° C. Format: biochemical. As to the method: Time-Dependent Inactivation of sACE-1. sACE-1 and each M-chelate-lisinopril complex (prepared in the absence of Zn^2+) were preincubated for 20 min at 37° C. in a buffer containing 50 mM HEPES, 300 mM NaCl, 10 μM ZnCl2, 0.05% Brij35, pH 7.4, and after 20 min, coreactants ascorbate and/or H2O2 (or no coreactants) were added to initiate each reaction. Reaction concentrations were 1 nM sACE-1, a concentration of M-chelate-lisinopril that gave approximately 80% activity (calculated by use of equation (1), where A=80%; concentrations listed in the table in paragraph [00132]), and 1 mM ascorbate and/or H2O2 (or no coreactants). Each time-dependent ACE-inactivation reaction proceeded at 37° C. for a period of 2 h, and at each specific intervening time point, a 68.6 μL, aliquot of the reaction mixture containing sACE-1 was mixed with 1.4 μL of 0.5 mM fluorogenic substrate in a fluorescence cuvette. Substrate cleavage by sACE-1 was immediately monitored by real-time fluorimetry at 37° C., with excitation at 320 nm and emission at 405 nm. Initial rates were determined for each time point for the time-dependent inactivation of sACE-1, and these initial rates were expressed as a percentage (% maximal activity) of the average of several initial rates for uninhibited substrate cleavage by sACE-1, determined in the absence of both M-chelate-lisinopril complexes and coreactants. Plots of % maximal activity vs. time were fit to a first-order exponential decay model, and initial rates of inactivation of sACE-1 by M-chelate-lisinopril complexes were determined. Second-order rate constants for inactivation of sACE-1 were obtained using equation (2), where k2 is the second-order rate constant (M^−1 min^−1), R is the initial rate of enzyme inactivation (M/min) after subtraction of the corresponding background rate in the absence of M-chelate-lisinopril complex, but with the same coreactants, [I] is the concentration of M-chelate-lisinopril complex used (M), and [E] is the concentration of sACE-1 used (1×10^−9 M). Control experiments with M-chelate complexes lacking attached lisinopril were performed in the same manner and conditions used for the respective M-chelate-lisinopril complexes.

A further data set addresses T2, full length sACE-1 (Homo sapiens, UniProt P12821).
T2 construct: sACE-1: Leu30-Leu1261, with C-terminal His tag; His tag (C); purchased R&D Systems; host or cells: NS0-derived murine myeloma cell line
The data set can be described thus: Cleavage of full length sACE-1 monitored by SDS-PAGE. The settings on record: Ascorbate, pH 7.4, 37° C. In kind it is biochemical.

A further data set concerns pUC19 plasmid DNA. The data set can be described thus: DNA nicking and linearization nuclease assay. In kind it is biochemical. The settings on record: 10 μM base pairs pUC19; ascorbate/peroxide; — = Below detection limit.
A further data set deals with HCV protease (Hepatitis C virus genotype 1a, UniProt P27958). The settings on record: cited from earlier work.

Where a SMILES comes first, the peptide text is derived from it. Where no end group is shown, it is not given here. [ ]: non-standard residue; d: D form. The star is where a group is joined. X1 = COCCOCCOCCOCCOCCOCCOCCOCCOCCOCCOCCOCCOCCOCCOCCOCCOCCOCCOCCOCCOCCOCCOCCOCCNC(=O)CCN1C(=O)CC(*)C1=O A value given as a limit tells only on which side of the number the result lay.

Sequence of HCV protease (P27958 1027-1208, other chains not shown): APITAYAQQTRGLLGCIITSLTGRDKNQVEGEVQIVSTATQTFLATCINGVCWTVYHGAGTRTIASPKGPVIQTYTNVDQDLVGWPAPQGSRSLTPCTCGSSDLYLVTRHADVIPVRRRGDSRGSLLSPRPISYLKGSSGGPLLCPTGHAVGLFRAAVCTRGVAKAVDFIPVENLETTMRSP
T2 sequence (P12821 30-1261): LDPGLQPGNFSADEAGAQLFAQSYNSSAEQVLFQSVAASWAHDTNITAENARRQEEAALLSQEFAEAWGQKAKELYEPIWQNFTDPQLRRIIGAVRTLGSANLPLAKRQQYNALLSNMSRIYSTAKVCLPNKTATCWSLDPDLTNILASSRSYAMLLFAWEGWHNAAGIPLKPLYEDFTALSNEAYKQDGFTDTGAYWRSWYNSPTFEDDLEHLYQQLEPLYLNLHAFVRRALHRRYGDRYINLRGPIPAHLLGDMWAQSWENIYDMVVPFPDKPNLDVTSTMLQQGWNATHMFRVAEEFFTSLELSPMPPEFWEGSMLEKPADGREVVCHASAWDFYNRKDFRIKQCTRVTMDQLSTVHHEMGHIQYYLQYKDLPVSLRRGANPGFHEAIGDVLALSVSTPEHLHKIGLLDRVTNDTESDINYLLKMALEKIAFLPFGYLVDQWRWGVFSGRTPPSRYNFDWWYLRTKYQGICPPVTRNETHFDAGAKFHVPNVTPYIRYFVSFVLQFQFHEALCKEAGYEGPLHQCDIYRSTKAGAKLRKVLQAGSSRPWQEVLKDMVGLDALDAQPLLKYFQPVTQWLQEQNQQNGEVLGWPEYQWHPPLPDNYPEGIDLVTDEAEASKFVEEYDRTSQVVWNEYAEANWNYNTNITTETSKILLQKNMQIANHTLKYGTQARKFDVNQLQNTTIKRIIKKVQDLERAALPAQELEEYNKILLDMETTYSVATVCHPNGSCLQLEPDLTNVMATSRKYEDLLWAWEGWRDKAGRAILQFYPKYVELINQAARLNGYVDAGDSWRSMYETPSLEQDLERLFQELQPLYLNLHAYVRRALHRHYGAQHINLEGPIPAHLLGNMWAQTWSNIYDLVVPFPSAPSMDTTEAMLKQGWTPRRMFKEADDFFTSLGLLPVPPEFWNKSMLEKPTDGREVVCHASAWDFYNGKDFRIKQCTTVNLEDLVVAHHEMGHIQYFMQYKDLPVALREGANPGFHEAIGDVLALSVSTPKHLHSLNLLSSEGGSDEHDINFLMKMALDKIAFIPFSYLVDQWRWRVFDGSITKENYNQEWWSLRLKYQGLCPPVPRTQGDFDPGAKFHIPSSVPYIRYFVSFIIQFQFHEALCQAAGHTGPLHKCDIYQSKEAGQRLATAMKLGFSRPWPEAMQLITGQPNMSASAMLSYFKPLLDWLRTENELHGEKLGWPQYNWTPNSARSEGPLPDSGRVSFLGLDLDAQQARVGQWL
T1 sequence (P12821 30-1261): as above

A word on the Kd: it is the concentration at which binding is half-saturated. High values mean lower affinity, low ones higher affinity. Consider “Cu-GGHYRFK-amide (GGHYRFK-NH2; also: Cu complex)”, for which the KA in data set [1] and in data set [2] was 145000 M⁻¹ throughout. In addition, the Kd in data set [1] and in [2] was 6.9 µM throughout. Moreover, the Vmax in [3] was determined as 3.96 RFU/min; in [4] it was 0.95 RFU/min.

Turning to `COCCOCCOCCOCCOCCOCCOCCOCCOCCOCCOCCOCCOCCOCCOCCOCCOCCOCCOCCOCCOCCOCCOCCOCCNC(=O)CCN1C(=O)CC(SC[C@H](NC(=O)CNC(=O)CNC(=O)[C@H](CCCCN)NC(=O)[C@H](Cc2ccccc2)NC(=O)[C@@H](CCCNC(=N)N)NC(=O)[C@H](Cc2ccc(O)cc2)NC(=O)CNC(=O)[C@H](Cc2c[nH]cn2)NC(=O)CNC(=O)CN)C(N)=O)C1=O` (stereo partly shown) [Cu-GGHGYrFKGGC-PEG24] (H-GGHGY[dR]FKGGC(X1)-NH2), the CC50 was over 50 µM.

With Cu-GGHKYKETDLLILFKDDYFAKKNEERK-amide, the KA was determined as 556000 M⁻¹ in data set [1] and 143000 M⁻¹ in data set [2]. For the same molecule, the Kd worked out at 1.8 µM in [1] and 7 µM in data set [2]. The figures for the Vmax in data set [3] and in [4] were 13.96 RFU/min and 2.0 RFU/min, respectively.

As to `O=C([O-])CN(CCN(CC(=O)[O-])CC(=O)[O-])CC(=O)[O-].[Fe+3]` [Fe-EDTA], the “Second order rate constant for inactivation of sACE-1, M-chelate without lisinopril” value in data set [5] was 10,000 ± 50,000 M^−1min^−1. On full length sACE-1, the “Second order rate constant for cleavage of full length sACE-1 (in brackets), M-chelate without lisinopril” value is “{<100,000} M^−1min^−1”. In the data set on pUC19 plasmid DNA, the “klin for DNA linearization, without attached Rev (M-chelate)” value turned out to be 0.0005 ± 0.0001 min⁻¹ and the “knick for DNA nicking, without attached Rev (M-chelate)” value was found to be 0.044 ± 0.009 min⁻¹.

Regarding `COCCOCCOCCOCCOCCOCCOCCOCCOCCOCCOCCOCCOCCOCCOCCOCCOCCOCCOCCOCCOCCOCCOCCOCCOCCOCCOCCOCCOCCOCCOCCOCCOCCOCCOCCOCCOCCOCCOCCOCCOCCOCCOCCOCCOCCOCCOCCOCCNC(=O)CCN1C(=O)CC(SC[C@H](NC(=O)CNC(=O)CNC(=O)[C@H](CCCCN)NC(=O)[C@H](Cc2ccccc2)NC(=O)[C@@H](CCCNC(=N)N)NC(=O)[C@H](Cc2ccc(O)cc2)NC(=O)CNC(=O)[C@H](Cc2c[nH]cn2)NC(=O)CNC(=O)CN)C(N)=O)C1=O` (stereo partly shown) [Cu-GGHGYrFKGGC-PEG48], the CC50 was over 50 µM.

The term Ki denotes the dissociation constant of the complex between target and ligand, obtained from inhibition or displacement. With DDIVPC [Asp-Asp-Ile-Val-Pro-Cys], the Ki at HCV protease was 79 µM.
